# Numbers after ± are expanded uncertainties.
# Conditions: 298.2 K; 101.3 kPa; Liquid; Buoyancy - hydrostatic balance
row,Structure (SMILES),mass density [kg/m3]
1,Cc1cccc(O)c1 [3-methylphenol],1034.5 ± 6
2,CCCCOC(C)=O [butyl ethanoate],882.2 ± 6
3,O [water],997.2 ± 6
4,CC(=O)CC(C)C [4-methylpentan-2-one],799.8 ± 6
5,"Cc1cc(C)cc(C)c1 [1,3,5-trimethylbenzene]",864 ± 6
6,CO [methanol],791 ± 6

# Same assay, conditions: 298.2 K; 101.3 kPa; Metastable liquid; Buoyancy - hydrostatic balance
row,Structure (SMILES),mass density [kg/m3]
1,Cc1ccc(O)cc1 [4-methylphenol],1034.4 ± 6
